Read-outs that look alike come from different tables or passages of the source.
Key:
[1] = target: FGFR4 (GST-FGFR4(388-802)) (Homo sapiens (Human), UniProt P22455); assay: In-vitro biochemical kinase assay for FGFR4 (Caliper microfluidic mobility shift)
Tel-FGFR4 = Tel-FGFR4 (Homo sapiens (Human), UniProt P22455); assay: In vitro cellular kinase assay for FGFR4 (BaF3-Tel-FGFR4 cells, MSD capture ELISA of tyrosine phosphorylation); assay type: cell-based
[2] = biochemical FGFR4 assay, read-out: Biochemical IC50
[3] = Cellular BaF3 FGFR4 assay, read-out: Cellular IC50
[4] = read-out: Biochemical FGFR4 IC50
[5] = BaF3-Tel-FGFR4 cells, 1 hour incubation, read-out: Cellular BaF3 FGFR4 IC50

Sequence of Tel-FGFR4 (P22455 other isoform, or with tags, fused parts or gaps): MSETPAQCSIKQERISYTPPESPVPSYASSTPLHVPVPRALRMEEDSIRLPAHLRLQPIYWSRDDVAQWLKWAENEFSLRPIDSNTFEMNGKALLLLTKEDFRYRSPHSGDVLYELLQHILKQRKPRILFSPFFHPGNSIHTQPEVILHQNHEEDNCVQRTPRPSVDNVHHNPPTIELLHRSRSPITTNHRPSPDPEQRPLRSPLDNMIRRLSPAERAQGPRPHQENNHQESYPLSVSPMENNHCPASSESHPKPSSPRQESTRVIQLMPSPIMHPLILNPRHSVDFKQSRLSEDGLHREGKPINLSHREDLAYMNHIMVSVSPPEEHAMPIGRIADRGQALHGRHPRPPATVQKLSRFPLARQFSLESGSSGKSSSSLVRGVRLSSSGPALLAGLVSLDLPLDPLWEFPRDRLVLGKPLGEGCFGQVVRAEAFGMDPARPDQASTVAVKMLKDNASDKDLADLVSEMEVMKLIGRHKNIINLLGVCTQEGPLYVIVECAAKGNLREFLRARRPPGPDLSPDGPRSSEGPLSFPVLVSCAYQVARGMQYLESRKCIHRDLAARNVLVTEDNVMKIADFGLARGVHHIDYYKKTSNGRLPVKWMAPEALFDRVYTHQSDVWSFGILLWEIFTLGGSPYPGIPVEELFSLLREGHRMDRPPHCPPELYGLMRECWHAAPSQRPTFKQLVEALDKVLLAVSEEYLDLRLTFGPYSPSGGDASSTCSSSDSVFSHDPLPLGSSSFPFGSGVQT
Sequence of FGFR4 (GST-FGFR4(388-802)) (P22455 388-802): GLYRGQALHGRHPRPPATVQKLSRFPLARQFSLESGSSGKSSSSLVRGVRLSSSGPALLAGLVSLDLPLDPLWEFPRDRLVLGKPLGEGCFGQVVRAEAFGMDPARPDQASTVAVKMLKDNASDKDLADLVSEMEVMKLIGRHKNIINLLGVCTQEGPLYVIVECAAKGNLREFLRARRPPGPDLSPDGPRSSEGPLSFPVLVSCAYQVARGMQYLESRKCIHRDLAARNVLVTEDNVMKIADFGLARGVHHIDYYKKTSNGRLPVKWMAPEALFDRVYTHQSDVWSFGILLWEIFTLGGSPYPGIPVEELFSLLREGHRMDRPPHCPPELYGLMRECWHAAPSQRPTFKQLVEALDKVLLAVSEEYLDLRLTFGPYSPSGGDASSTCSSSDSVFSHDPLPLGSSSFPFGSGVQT

SMILES | IC50 [1, 2] [µM] | IC50 (Tel-FGFR4; [3]) [µM] | IC50 (Tel-FGFR4; measured and considered as outlier values, not included in the table or list, read-out: IC50 in the cellular BaF3 FGFR4 assay, outlier values) [µM] | IC50 [1, 4] [µM] | IC50 (Tel-FGFR4; [5]) [µM]
N#Cc1cnc(NC(=O)N2CCCc3cc(CO)c(C=O)nc32)cc1OCC(F)(F)F [Example 89, N-(5-cyano-4-(2,2,2-trifluoroethoxyl)pyridin-2-yl)-7-formyl-6-(hydroxymethyl)-3,4-dihydro-1,8-naphthyridine-1(2H)-carboxamide] | – | – | – | 0.0089 | 0.0145
O=Cc1nc2c(cc1CO)CCCN2C(=O)Nc1cc(O[C@H]2CCOC2)ccn1 [Example 71, (S)-7-formyl-6-(hydroxymethyl)-N-(4-((tetrahydrofuran-3-yl)oxy)pyridin-2-yl)-3,4-dihydro-1,8-naphthyridine-1(2H)-carboxamide] | – | – | – | 0.81 | 1.57
N#Cc1cnc(NC(=O)N2CCCc3cc(CO)c(C=O)nc32)cc1OCC(O)CCCl (racemic) [Example 60, N-(4-(4-chloro-2-hydroxybutoxy)-5-cyanopyridin-2-yl)-7-formyl-6-(hydroxymethyl)-3,4-dihydro-1,8-naphthyridine-1(2H)-carboxamide] | – | – | – | 0.0008 | 0.026
N#Cc1cnc(NC(=O)N2CCCc3ccc(C=O)nc32)cc1Cl [Example 24, N-(4-chloro-5-cyanopyridin-2-yl)-7-formyl-3,4-dihydro-1,8-naphthyridine-1(2H)-carboxamide] | – | – | – | 0.024 | > 3
CC(C)COc1cc(NC(=O)N2CCCc3cc(C(F)F)c(C=O)nc32)ncc1C#N [N-(5-cyano-4-isobutoxypyridin-2-yl)-6-(difluoromethyl)-7-formyl-3,4-dihydro-1,8-naphthyridine-1(2H)-carboxamide] | 0.03 | 0.139 | – | – | –
COCCNc1cc(NC(=O)N2CCCc3cc(C4CCN(CC(F)F)CC4)c(C=O)nc32)ncc1C#N [Example 267, N-(5-cyano-4-((2-methoxyethyl)amino)pyridin-2-yl)-6-(1-(2,2-difluoroethyl)piperidin-4-yl)-7-formyl-3,4-dihydro-1,8-naphthyridine-1(2H)-carboxamide] | – | – | – | 0.0012 | 0.0167
CC(C)Oc1cc(NC(=O)N2CCCc3cc(CN4CCCC4)c(C=O)nc32)ncc1C#N [N-(5-cyano-4-isopropoxypyridin-2-yl)-7-formyl-6-(pyrrolidin-1-ylmethyl)-3,4-dihydro-1,8-naphthyridine-1(2H)-carboxamide] | 0.0264 | 0.854 | – | – | –
COC[C@H](C)Oc1cc(NC(=O)N2CCCc3cc(CN4CCCC4=O)c(C=O)nc32)ncc1C#N [(S)-N-(5-cyano-4-((1-methoxypropan-2-yl)oxy)pyridin-2-yl)-7-formyl-6-((2-oxopyrrolidin-1-yl)methyl)-3,4-dihydro-1,8-naphthyridine-1(2H)-carboxamide] | 0.0046 | 0.0076 | – | – | –
CC(C)Oc1cc(NC(=O)N2CCCc3cc(CN4CCNCC4=O)c(C=O)nc32)ncc1C#N [N-(5-cyano-4-isopropoxypyridin-2-yl)-7-formyl-6-((2-oxopiperazin-1-yl)methyl)-3,4-dihydro-1,8-naphthyridine-1(2H)-carboxamide] | 0.0021 | 0.0099 | – | – | –
COc1nc(NC(=O)N2CCCc3cc(CN4CCN(C)CC4=O)c(C=O)nc32)ncc1C#N [N-(5-cyano-4-methoxypyrimidin-2-yl)-7-formyl-6-((4-methyl-2-oxopiperazin-1-yl)methyl)-3,4-dihydro-1,8-naphthyridine-1(2H)-carboxamide] | 0.049 | 0.075 | – | – | –
COCCNc1cc(NC(=O)N2CCCc3cc(-c4sc(C)nc4C)c(C=O)nc32)ncc1C#N [N-(5-cyano-4-((2-methoxyethyl)amino)pyridin-2-yl)-6-(2,4-dimethylthiazol-5-yl)-7-formyl-3,4-dihydro-1,8-naphthyridine-1(2H)-carboxamide] | 0.0095 | 0.021 | – | – | –
COC[C@H](C)Oc1nc(NC(=O)N2CCCc3cc(CO)c(C=O)nc32)ncc1Cl [Example 58, (S)-N-(5-chloro-4-((1-methoxypropan-2-yl)oxy)pyrimidin-2-yl)-7-formyl-6-(hydroxymethyl)-3,4-dihydro-1,8-naphthyridine-1(2H)-carboxamide] | – | – | – | 0.16 | 0.898
CC(C)(O)CNc1cc(NC(=O)N2CCCc3cc(CO)c(C=O)nc32)ncc1C#N [Example 86, N-(5-cyano-4-((2-hydroxy-2-methylpropyl)amino)pyridin-2-yl)-7-formyl-6-(hydroxymethyl)-3,4-dihydro-1,8-naphthyridine-1(2H)-carboxamide] | – | – | – | 0.0049 | 0.012
CC(C)Oc1cc(NC(=O)N2c3nc(C=O)c(Br)cc3CC[C@H]2C)ncc1C#N [(R)-6-bromo-N-(5-cyano-4-isopropoxypyridin-2-yl)-7-formyl-2-methyl-3,4-dihydro-1,8-naphthyridine-1(2H)-carboxamide] | 0.021 | 0.168 | – | – | –
N#Cc1cnc(NC(=O)N2CCCc3cc(CN4CC[C@H](O)C4=O)c(C=O)nc32)cc1OCC(F)F [(S)N-(5-cyano-4-(2,2-difluoroethoxyl)pyridin-2-yl)-7-formyl-6-((3-hydroxy-2-oxopyrrolidin-1-yl)methyl)-3,4-dihydro-1,8-naphthyridine-1(2H)-carboxamide] | 0.0048 | 0.0135 | – | – | –
CC(C)Oc1cc(NC(=O)N2CCCc3cc(CN4CCN(C)CC4)c(C=O)nc32)ncc1C#N [N-(5-cyano-4-isopropoxypyridin-2-yl)-7-formyl-6-((4-methylpiperazin-1-yl)methyl)-3,4-dihydro-1,8-naphthyridine-1(2H)-carboxamide] | 0.003 | 0.0555 | – | – | –
COc1cc(NC(=O)N2CCCc3cc(CN4CCCC4=O)c(C=O)nc32)ncc1C(F)(F)F [7-formyl-N-(4-methoxy-5-(trifluoromethyl)pyridin-2-yl)-6-((2-oxopyrrolidin-1-yl)methyl)-3,4-dihydro-1,8-naphthyridine-1(2H)-carboxamide] | 0.0465 | 0.138 | – | – | –
CC(=O)N(C)Cc1cc2c(nc1C=O)N(C(=O)Nc1cc(OCC(C)C)c(C#N)cn1)CCC2 [N-(5-cyano-4-isobutoxypyridin-2-yl)-7-formyl-6-((N-methylacetamido)methyl)-3,4-dihydro-1,8-naphthyridine-1(2H)-carboxamide] | 0.0013 | 0.006 | – | – | –

The next lines start with results.

IC50 [1, 2] [µM] | IC50 (Tel-FGFR4; [3]) [µM] | IC50 (Tel-FGFR4; measured and considered as outlier values, not included in the table or list, read-out: IC50 in the cellular BaF3 FGFR4 assay, outlier values) [µM] | SMILES | IC50 [1, 4] [µM] | IC50 (Tel-FGFR4; [5]) [µM]
0.0002 | 0.0036 | – | CCNc1cc(NC(=O)N2CCCc3cc(CN(C)C(=O)CN(C)C)c(C=O)nc32)ncc1C#N [N-(5-cyano-4-(ethylamino)pyridin-2-yl)-6-((2-(dimethylamino)-N-methylacetamido)methyl)-7-formyl-3,4-dihydro-1,8-naphthyridine-1(2H)-carboxamide] | – | –
0.0009 | 0.0185 | > 3 | CCC(=O)N(C)Cc1cc2c(nc1C=O)N(C(=O)Nc1cc(OC(C)C)c(C#N)cn1)CCC2 [N-(5-cyano-4-isopropoxypyridin-2-yl)-7-formyl-6-((N-methylpropionamido)methyl)-3,4-dihydro-1,8-naphthyridine-1(2H)-carboxamide] | – | –
0.004 | 0.0121 | – | COC[C@H](C)Oc1cc(NC(=O)N2CCCc3cc(CN(C)C(C)=O)c(C=O)nc32)ncc1C#N [(S)-N-(5-cyano-4-((1-methoxypropan-2-yl)oxy)pyridin-2-yl)-7-formyl-6-((N-methylacetamido)methyl)-3,4-dihydro-1,8-naphthyridine-1(2H)-carboxamide] | – | –
0.0012 | 0.019 | – | COC[C@@H](C)Nc1cc(NC(=O)N2CCCc3cc(C(F)F)c(C=O)nc32)ncc1C#N [(R)-N-(5-cyano-4-((1-methoxypropan-2-yl)amino)pyridin-2-yl)-6-(difluoromethyl)-7-formyl-3,4-dihydro-1,8-naphthyridine-1(2H)-carboxamide] | – | –
0.0013 | 0.0203 | – | CC(C)Nc1cc(NC(=O)N2CCCc3cc(C(F)F)c(C=O)nc32)ncc1C#N [N-(5-cyano-4-(isopropylamino)pyridin-2-yl)-6-(difluoromethyl)-7-formyl-3,4-dihydro-1,8-naphthyridine-1(2H)-carboxamide] | – | –
0.0006 | 0.0115 | – | CC(C)Nc1cc(NC(=O)N2CCCc3cc(CN(C)C(=O)CN(C)C)c(C=O)nc32)ncc1C#N [N-(5-cyano-4-(isopropylamino)pyridin-2-yl)-6-((2-(dimethylamino)-N-methylacetamido)methyl)-7-formyl-3,4-dihydro-1,8-naphthyridine-1(2H)-carboxamide] | – | –
0.001 | 0.0042 | – | COC[C@H](C)Nc1cc(NC(=O)N2CCCc3cc(CN(C)C(C)=O)c(C=O)nc32)ncc1C#N [(S)-N-(5-cyano-4-((1-methoxypropan-2-yl)amino)pyridin-2-yl)-7-formyl-6-((N-methylacetamido)methyl)-3,4-dihydro-1,8-naphthyridine-1(2H)-carboxamide] | – | –
0.0005 | 0.0081 | – | CC(=O)N(C)Cc1cc2c(nc1C=O)N(C(=O)Nc1cc(NCCO)c(C#N)cn1)CCC2 [N-(5-cyano-4-((2-hydroxyethyl)amino)pyridin-2-yl)-7-formyl-6-((N-methylacetamido)methyl)-3,4-dihydro-1,8-naphthyridine-1(2H)-carboxamide] | – | –
0.012 | 0.013 | – | CCN(Cc1cc2c(nc1C=O)N(C(=O)Nc1cc(NC)c(C#N)cn1)CCC2)C(=O)CN(C)C [N-(5-cyano-4-(methylamino)pyridin-2-yl)-6-((2-(dimethylamino)-N-ethylacetamido)methyl)-7-formyl-3,4-dihydro-1,8-naphthyridine-1(2H)-carboxamide] | – | –
0.001 | 0.0055 | – | N#Cc1cnc(NC(=O)N2CCCc3cc(C(F)F)c(C=O)nc32)cc1NCCO [N-(5-cyano-4-((2-hydroxyethyl)amino)pyridin-2-yl)-6-(difluoromethyl)-7-formyl-3,4-dihydro-1,8-naphthyridine-1(2H)-carboxamide] | – | –

— US9266883B2, “Ring-fused bicyclic pyridyl derivatives as FGFR4 inhibitors” (Novartis AG, priority 2013, dated 2016)
